Source: PubChem BioAssay (NCI)
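96-well plates; 48 h exposure; 5 concentrations. Endpoints by linear interpolation between flanking doses. Not reached: highest tested concentration assigned. GI50 marks 50% less growth. TGI denotes the concentration required for complete inhibition of growth.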

Assays:
Experiment in all cases: NCI-60 cell line screen, 48 h
MDA-MB-468 breast = test system: MDA-MB-468 breast
786-0 renal = test system: 786-0 renal
A498 renal = test system: A498 renal
A549 NSCLC = test system: A549 NSCLC
ACHN renal = test system: ACHN renal
BT-549 breast = test system: BT-549 breast
CAKI-1 renal = test system: CAKI-1 renal
CCRF-CEM leukemia = test system: CCRF-CEM leukemia
DU-145 prostate = test system: DU-145 prostate
EKVX NSCLC = test system: EKVX NSCLC
HCC-2998 colon = test system: HCC-2998 colon
HCT-116 colon = test system: HCT-116 colon
HCT-15 colon = test system: HCT-15 colon
HL-60(TB) leukemia = test system: HL-60(TB) leukemia
HOP-62 NSCLC = test system: HOP-62 NSCLC
HOP-92 NSCLC = test system: HOP-92 NSCLC
HS 578T breast = test system: HS 578T breast
HT29 colon = test system: HT29 colon
IGROV1 ovarian = test system: IGROV1 ovarian
KM12 colon = test system: KM12 colon
LOX IMVI melanoma = test system: LOX IMVI melanoma
M14 melanoma = test system: M14 melanoma
MALME-3M melanoma = test system: MALME-3M melanoma
MCF7 breast = test system: MCF7 breast
MDA-MB-231 breast = test system: MDA-MB-231 breast
MDA-MB-435 = test system: MDA-MB-435
MOLT-4 leukemia = test system: MOLT-4 leukemia
NCI-H226 lung = test system: NCI-H226 lung
NCI-H23 lung = test system: NCI-H23 lung
NCI-H460 lung = test system: NCI-H460 lung
NCI-H522 lung = test system: NCI-H522 lung
NCI/ADR-RES ovarian = test system: NCI/ADR-RES ovarian
OVCAR-3 ovarian = test system: OVCAR-3 ovarian
OVCAR-4 ovarian = test system: OVCAR-4 ovarian
OVCAR-5 ovarian = test system: OVCAR-5 ovarian
OVCAR-8 ovarian = test system: OVCAR-8 ovarian
PC-3 prostate = test system: PC-3 prostate
RPMI-8226 leukemia = test system: RPMI-8226 leukemia
RXF 393 renal = test system: RXF 393 renal
SF-268 CNS = test system: SF-268 CNS
SF-295 CNS = test system: SF-295 CNS
SF-539 CNS = test system: SF-539 CNS
SK-MEL-2 melanoma = test system: SK-MEL-2 melanoma
SK-MEL-28 melanoma = test system: SK-MEL-28 melanoma
SK-MEL-5 melanoma = test system: SK-MEL-5 melanoma
SK-OV-3 ovarian = test system: SK-OV-3 ovarian
SN12C renal = test system: SN12C renal
SNB-19 CNS = test system: SNB-19 CNS
SNB-75 CNS = test system: SNB-75 CNS
SR leukemia = test system: SR leukemia
T-47D breast = test system: T-47D breast
TK-10 renal = test system: TK-10 renal
U251 CNS = test system: U251 CNS
UACC-257 melanoma = test system: UACC-257 melanoma
UACC-62 melanoma = test system: UACC-62 melanoma
UO-31 renal = test system: UO-31 renal

SMILES: COc1cc(NCCCCCN=C(N)NC(N)=NC(C)C)c2ncccc2c1
- GI50 (MDA-MB-468 breast): 0.0903 µM
- TGI (MDA-MB-468 breast): 0.594 µM

SMILES: COC[C@]12CCC(C)(C)C[C@H]1C1=CC[C@@H]3[C@@]4(C)CCCNC(C)(C)[C@@H]4CC[C@@]3(C)[C@]1(C)CC2
- GI50 (MDA-MB-468 breast): 1.53 µM
- TGI (MDA-MB-468 breast): 3.23 µM

SMILES: CC[C@H](C)[C@H](NC(=O)c1cccn1C)C(=O)N(C)[C@H](C[C@@H](OC(C)=O)c1nc(C(=O)N[C@@H](Cc2ccccc2)C[C@H](C)C(=O)OC)cs1)C(C)C
- GI50 (MDA-MB-468 breast): 0.0683 µM
- TGI (MDA-MB-468 breast): 10.8 µM

SMILES: CC(C)c1ccc(NC(=O)Cc2ccc(Nc3ncnc4cc(-c5cnn(CCN(C)C)c5)ccc34)cc2)cc1
- GI50 (MDA-MB-468 breast): 1.34 µM
- TGI (MDA-MB-468 breast): 3.72 µM

SMILES: O=c1[nH]c(=O)n(C2CC(O)C(CO)O2)cc1C(F)(F)F (centres undefined)
- GI50 (MDA-MB-468 breast): > 85.4 µM
- TGI (MDA-MB-468 breast): > 100 µM

SMILES: Cc1ccc(C(=O)NC2CC2)cc1-c1ccc2[nH]ncc2c1
- GI50 (MDA-MB-468 breast): > 23 µM
- TGI (MDA-MB-468 breast): > 25 µM

SMILES: O=C(/C=C/C12c3ccccc3C(c3ccccc31)C1C(=O)NC(=O)C12)c1ccccc1 (centres undefined)
- GI50 (MDA-MB-468 breast): 1.72 µM
- TGI (MDA-MB-468 breast): 3.68 µM

SMILES: CC(C)(C)OC(=O)N[C@@H](Cc1ccccc1)C(=O)N(Cc1ccccc1)C1(C(=O)NCc2ccccc2)CCN(Cc2ccccc2)CC1
- GI50 (MDA-MB-468 breast): 1.62 µM
- TGI (MDA-MB-468 breast): 5.91 µM

SMILES: CC/C(=C/c1ccc(OC)cc1OC)[N+](=O)[O-]
- GI50 (MDA-MB-468 breast): 2.02 µM
- TGI (MDA-MB-468 breast): 4.3 µM

SMILES: CCn1c2ccccc2c2cc(C(=O)c3ccc(C)c4ccccc34)ccc21
- GI50 (MDA-MB-468 breast): 0.291 µM
- TGI (MDA-MB-468 breast): 0.918 µM

SMILES: Cc1cc(O)c(-c2ccc([C@@H](C)CN(C)C)cc2)c2c1[nH]c(=O)c1sccc12
- GI50 (MDA-MB-468 breast): 0.514 µM
- TGI (MDA-MB-468 breast): 3.94 µM

SMILES: COc1ccc(NC(=O)Cn2c(/C=C/c3ccc(N(C)C)cc3)nc3ccccc3c2=O)cc1
- GI50 (786-0 renal): 2.03 µM
- TGI (786-0 renal): 4.62 µM
- GI50 (A498 renal): 4.19 µM
- TGI (A498 renal): 19.8 µM
- GI50 (A549 NSCLC): 13.9 µM
- TGI (A549 NSCLC): > 100 µM
- GI50 (ACHN renal): 3.25 µM
- TGI (ACHN renal): 11.4 µM
- GI50 (BT-549 breast): 2.01 µM
- TGI (BT-549 breast): 5.43 µM
- GI50 (CAKI-1 renal): 4.12 µM
- TGI (CAKI-1 renal): 20.7 µM
- GI50 (CCRF-CEM leukemia): > 100 µM
- TGI (CCRF-CEM leukemia): > 100 µM
- GI50 (DU-145 prostate): 7.64 µM
- TGI (DU-145 prostate): > 100 µM
- GI50 (EKVX NSCLC): 40.3 µM
- TGI (EKVX NSCLC): > 100 µM
- GI50 (HCC-2998 colon): 6.21 µM
- TGI (HCC-2998 colon): > 100 µM
- GI50 (HCT-116 colon): 3.05 µM
- TGI (HCT-116 colon): 11.2 µM
- GI50 (HCT-15 colon): 13.6 µM
- TGI (HCT-15 colon): > 100 µM
- GI50 (HL-60(TB) leukemia): > 100 µM
- TGI (HL-60(TB) leukemia): > 100 µM
- GI50 (HOP-62 NSCLC): 5 µM
- TGI (HOP-62 NSCLC): 20.6 µM
- GI50 (HOP-92 NSCLC): 3.65 µM
- TGI (HOP-92 NSCLC): 18.9 µM
- GI50 (HS 578T breast): 4.88 µM
- TGI (HS 578T breast): 74.9 µM
- GI50 (HT29 colon): 6.32 µM
- TGI (HT29 colon): > 100 µM
- GI50 (IGROV1 ovarian): 36.7 µM
- TGI (IGROV1 ovarian): > 100 µM
- GI50 (KM12 colon): > 100 µM
- TGI (KM12 colon): > 100 µM
- GI50 (LOX IMVI melanoma): 4.48 µM
- TGI (LOX IMVI melanoma): > 100 µM
- GI50 (M14 melanoma): 12.9 µM
- TGI (M14 melanoma): > 100 µM
- GI50 (MALME-3M melanoma): 3.95 µM
- TGI (MALME-3M melanoma): 24 µM
- GI50 (MCF7 breast): 4.35 µM
- TGI (MCF7 breast): > 100 µM
- GI50 (MDA-MB-231 breast): 2.61 µM
- TGI (MDA-MB-231 breast): 6.84 µM
- GI50 (MDA-MB-435): 7.19 µM
- TGI (MDA-MB-435): > 100 µM
- GI50 (MDA-MB-468 breast): 3.11 µM
- TGI (MDA-MB-468 breast): 21.2 µM
- GI50 (MOLT-4 leukemia): > 100 µM
- TGI (MOLT-4 leukemia): > 100 µM
- GI50 (NCI-H226 lung): 2.31 µM
- TGI (NCI-H226 lung): 6.24 µM
- GI50 (NCI-H23 lung): 3.79 µM
- TGI (NCI-H23 lung): 22.5 µM
- GI50 (NCI-H460 lung): 3.63 µM
- TGI (NCI-H460 lung): > 100 µM
- GI50 (NCI-H522 lung): 5.69 µM
- TGI (NCI-H522 lung): 29.4 µM
- GI50 (NCI/ADR-RES ovarian): 3.51 µM
- TGI (NCI/ADR-RES ovarian): 20.4 µM
- GI50 (OVCAR-3 ovarian): > 100 µM
- TGI (OVCAR-3 ovarian): > 100 µM
- GI50 (OVCAR-4 ovarian): 28.9 µM
- TGI (OVCAR-4 ovarian): > 100 µM
- GI50 (OVCAR-5 ovarian): > 100 µM
- TGI (OVCAR-5 ovarian): > 100 µM
- GI50 (OVCAR-8 ovarian): 13.5 µM
- TGI (OVCAR-8 ovarian): > 100 µM
- GI50 (PC-3 prostate): 5.6 µM
- TGI (PC-3 prostate): > 100 µM
- GI50 (RPMI-8226 leukemia): 7.14 µM
- TGI (RPMI-8226 leukemia): > 100 µM
- GI50 (RXF 393 renal): 2.09 µM
- TGI (RXF 393 renal): 5.27 µM
- GI50 (SF-268 CNS): 12.4 µM
- TGI (SF-268 CNS): > 100 µM
- GI50 (SF-295 CNS): 3 µM
- TGI (SF-295 CNS): 11.9 µM
- GI50 (SF-539 CNS): 1.79 µM
- TGI (SF-539 CNS): 3.67 µM
- GI50 (SK-MEL-2 melanoma): 16.1 µM
- TGI (SK-MEL-2 melanoma): 47.9 µM
- GI50 (SK-MEL-28 melanoma): 6.07 µM
- TGI (SK-MEL-28 melanoma): > 100 µM
- GI50 (SK-MEL-5 melanoma): 2.96 µM
- TGI (SK-MEL-5 melanoma): 10.4 µM
- GI50 (SK-OV-3 ovarian): 3.22 µM
- TGI (SK-OV-3 ovarian): 8.35 µM
- GI50 (SN12C renal): > 100 µM
- TGI (SN12C renal): > 100 µM
- GI50 (SNB-19 CNS): 13.1 µM
- TGI (SNB-19 CNS): 40.3 µM
- GI50 (SNB-75 CNS): 3.86 µM
- TGI (SNB-75 CNS): 39.9 µM
- GI50 (SR leukemia): > 100 µM
- TGI (SR leukemia): > 100 µM
- GI50 (T-47D breast): 4.27 µM
- TGI (T-47D breast): > 100 µM
- GI50 (TK-10 renal): 6.22 µM
- TGI (TK-10 renal): 24.2 µM
- GI50 (U251 CNS): 3.72 µM
- TGI (U251 CNS): 18.5 µM
- GI50 (UACC-257 melanoma): 84.5 µM
- TGI (UACC-257 melanoma): > 100 µM
- GI50 (UACC-62 melanoma): 2.96 µM
- TGI (UACC-62 melanoma): 13.1 µM
- GI50 (UO-31 renal): 2.92 µM
- TGI (UO-31 renal): 31.3 µM
